The source of these data is patent publication US10307357B2, “Prebiotic oral care compositions containing an alkyl glycoside” (COLGATE-PALMOLIVE COMPANY, priority 2013, dated 2019).

Holding throughout (format): cell-based
Test [1] concerns Actinomyces viscosus. The test is described as follows: Twenty-four hour optical density growth in BHI. Particulars: over 24 hours, control = 1. How it is done: (§1) The extent of growth of the tested bacteria in response to selected glycosides (β-methyl-D-galactoside and α-methyl-D-galactoside) was investigated by setting up growth curves in a nutritionally rich medium (brain heart infusion broth (BHI), Oxoid), over 24 hours. Late exponential growth phase liquid cultures were prepared by transferring the respective bacterium from blood agar plates to BHI and overnight incubation at 37° C. in an anaerobic atmosphere for A. viscosus, V. parvula, F. nucleatum, P. gingivalis, P. intermedia, T. forsythia, A. naeslundii, and C. sputigena, and in a 5% CO2 environment for S. salivarius, S. sanguinis, S. mitis, A. actinomycetemcomitans, S. mutans, S. sobrinus and S. gordonii. Overnight cultures were transferred to BHI and adjusted to a concentration of 1×10^7 CFU/ml (colony forming units per ml) by measuring the optical density at 600 nm (OD600) (BioRad SmartSpec 3000). For each strain, 200 μl of the bacterial suspension was added to a 96-well plate containing 20 μl of the respective glycosides. Final concentrations of the glycosides were set to 5, 10, 20 and 25 μmol/ml. […] Plates were incubated as previously described. For each combination of bacterium/glycoside, and for each of their respective controls (i.e. the particular bacterium in the nutritionally rich medium with no glycoside), the optical density was measured at 630 nm (OD630) at 0 h and 24 h (Thermo Scientific Multiskan Ascent). Additionally, the OD630 for combinations of bacterium/glycosides grown in a 5% CO2 environment were also measured every hour between 0 h and 9 h. […] The experiment was carried out on three different days (thus providing 3 biological replicas) and on each day the experiment was carried out in quadruple (thus providing 4 technical replicas) for each combination of bacterium with glycoside and for each control. For each day and for each combination, the average (mean) of the values obtained (as detailed above) for the four technical replicas was calculated to provide a single value for each combination on each day. The values shown in Tables 5 to 6, below, are the average (mean) of the three single values obtained for each combination of bacterium with glycoside (α-Methyl-D-Galactoside=α-MDG; β-Methyl-D-Galactoside=β-MDG).

In test [2] the test system is Aggregatibacter actinomycetemcomitans. The experiment in a line: Twenty-four hour optical density growth in BHI. Particulars: over 24 hours, control = 1. How it is done: as §1
Test [3] deals with Prevotella intermedia. The experiment in a line: Twenty-four hour optical density growth in BHI. Particulars: over 24 hours, control = 1. The method, then: as §1
For test [4], the system named is Streptococcus sobrinus. The experiment in a line: Twenty-four hour optical density growth in BHI. Conditions: over 24 hours, control = 1. How it is done:
as §1

Test [5] concerns Veillonella parvula. The experiment in a line: Twenty-four hour optical density growth in BHI. Conditions: over 24 hours, control = 1. The method, then:
as §1

Test [6] deals with beneficial oral bacteria and pathogenic oral bacteria. The experiment in a line: Microarray screen, conclusion over the panel. Particulars: at 24 hrs and at 48 hrs; threshold 2. The method, then: Substrates that were able to increase the metabolic activity of at least one of the above beneficial bacteria while not or only minimally increasing the growth of the pathogenic bacteria are considered to be prebiotic substrates. The extent of metabolic activity of the tested bacteria in the presence of the above-mentioned glycosides after 24 hours and 48 hours was investigated through a high throughput phenotype microarray system (PM) for microbial cells (Biolog Inc.). Each PM can contain up to 95 different biochemical compounds (e.g. glycosides) that may act as substrates for bacteria as well as one negative control, not containing the substrates. Microarray plates were used in which the different wells of each plate were pre-loaded (by the manufacturer, Biolog Inc.) with different glycosides to be tested. […] Color changes were measured spectrophotometrically at 492 nm (Thermo Scientific Multiskan Ascent) at 24 hrs and 48 hrs using the same plate at both time points. […] After 24 hrs and 48 hrs under continuous shaking in a Multiscan microplate reader, the optical density (OD) of the synthetic medium at 24 hours and 48 hours was measured (using the microplate reader) at a wavelength of 492 nm for each combination of bacterium/glycoside, and for each of their respective controls (i.e. which contained the particular bacterium but no glycosides). […]

In the case of `CO[C@@H]1O[C@H](CO)[C@H](O)[C@H](O)[C@H]1O` [β-methyl-D-galactoside], the “maximal OD630 divided by control (extent of growth)” value (shortened to “maximal OD630 divided by control”) in test [1] (5 μmol/ml) was 0.6467; in test [1] (10 μmol/ml), 0.6333; in test [1] (20 μmol/ml) it was 0.6745; in test [1] (25 μmol/ml) it was 0.6464; in test [2] (5 μmol/ml), 0.7099; in test [2] (10 μmol/ml), 0.7723. In addition, the “maximal OD630 divided by control” value in test [2] (20 μmol/ml) is listed as 0.7373; in test [2] (25 μmol/ml), 0.7472; in test [3] (5 μmol/ml), 0.9000; in test [3] (10 μmol/ml), 0.8909; in test [3] (20 μmol/ml), 0.9071; in test [3] (25 μmol/ml), 0.9102. In addition, the “maximal OD630 divided by control” value in test [4] (5 μmol/ml) is listed as 0.8914; in test [4] (10 μmol/ml), 0.8818; in test [4] (20 μmol/ml), 0.9110; in test [4] (25 μmol/ml), 0.9111; in test [5] (5 μmol/ml), 0.8912; in test [5] (10 μmol/ml) it was 0.9129. Also, the “maximal OD630 divided by control” value in test [5] (20 μmol/ml) worked out at 0.9145; in test [5] (25 μmol/ml), 0.9462. The “prebiotic effect (metabolic activity), in words” value in test [6] is recorded as “exhibited prebiotic effects”.

Take `CO[C@H]1O[C@H](CO)[C@H](O)[C@H](O)[C@H]1O` [α-methyl-D-galactoside]: the “maximal OD630 divided by control” value in test [1] (5 μmol/ml) stood at 0.6181; in test [1] (10 μmol/ml), 0.5756; in test [1] (20 μmol/ml), 0.4433; in test [1] (25 μmol/ml), 0.4453; in test [2] (5 μmol/ml), 0.7382; in test [2] (10 μmol/ml), 0.7398. Besides, the “maximal OD630 divided by control” value in test [2] (20 μmol/ml) came out at 0.7462; in test [2] (25 μmol/ml), 0.7395; in test [3] (5 μmol/ml) it was 0.9203; in test [3] (10 μmol/ml), 0.9043; in test [3] (20 μmol/ml), 0.8637; in test [3] (25 μmol/ml), 0.8498. For the same compound, the “maximal OD630 divided by control” value came to 0.9005 in test [4] (5 μmol/ml); 0.8975 in test [4] (10 μmol/ml); 0.8858 in test [4] (20 μmol/ml); 0.9052 in test [4] (25 μmol/ml); 0.9160 in test [5] (5 μmol/ml); 0.9528 in test [5] (10 μmol/ml). The “maximal OD630 divided by control” value in test [5] (20 μmol/ml) amounted to 0.9141; in test [5] (25 μmol/ml), 0.9326. Further, the “prebiotic effect (metabolic activity), in words” value in test [6] was “exhibited prebiotic effects”.
